Where a SMILES comes first, the peptide text is derived from it. The star is where a group is joined. Cam = NC(=O)C*
What was measured:
[1] = tested on: Human immunodeficiency virus 1; assay: Antiviral activity against X4 tropic HIV1 NL4-3 in MT4 cells assessed as protection from virus-induced cytopathogenicity after 5 days by MTT assay; type: functional, organism-based; conditions: Human immunodeficiency virus 1, NL4-3, MT4, 120 h
[2] = Cytotoxicity against human MT4 cells after 5 days by MTT assay; type: cell-based
[3] = tested on: Human immunodeficiency virus 1; assay: Antiviral activity against R5 tropic HIV1 JR-CSF in PM1/CCR5 cells assessed as protection from virus-induced cytopathogenicity measuring capsid p24 level after 5 days by ELISA; type: functional, cell-based; conditions: Human immunodeficiency virus 1, JRCSF ISOLATE, PM1/CCR5, 120 h
[4] = tested on: Human immunodeficiency virus 1; assay: Antiviral activity against R5 tropic HIV1 NL(AD8) in PM1/CCR5 cells assessed as protection from virus-induced cytopathogenicity at 50 uM after 5 days by MTT assay; type: functional; conditions: Human immunodeficiency virus 1, NL(AD8), PM1/CCR5, 120 h
[5] = tested on: Human immunodeficiency virus 1; assay: Antiviral activity against R5 tropic HIV1 NL(AD8) in PM1/CCR5 cells assessed as protection from virus-induced cytopathogenicity after 5 days by MTT assay; type: functional, organism-based; conditions: Human immunodeficiency virus 1, NL(AD8), PM1/CCR5, 120 h

With `CC[C@H](C)[C@H](NC(=O)[C@H](Cc1cnc[nH]1)NC(=O)[C@H](CCCCN)NC(=O)[C@H](CC(C)C)NC(=O)[C@H](CCCCN)NC(=O)[C@H](Cc1ccc(O)cc1)NC(=O)[C@H](CCC(N)=O)NC(=O)[C@H](CCC(=O)O)NC(=O)[C@H](Cc1c[nH]c2ccccc12)NC(=O)[C@H](CCCCN)NC(=O)[C@H](CC(=O)O)NC(=O)[C@H](CC(C)C)NC(=O)[C@H](CCC(=O)O)NC(=O)CNC(C)=O)C(=O)N[C@H](C(=O)NCC(=O)N[C@@H](CSCC(N)=O)C(N)=O)C(C)C` (Ac-GELDKWEQYKLKHIVGC(Cam)-NH2) the EC50 [1] was > 50 µM and the CC50 at 120 h [2] was > 50 µM.

In the case of `CC[C@H](C)[C@H](NC(=O)[C@H](CCC(N)=O)NC(=O)[C@H](CCCNC(=N)N)NC(=O)[C@H](CO)NC(=O)CNC(=O)[C@H](CCC(=O)O)NC(=O)[C@H](CO)NC(=O)[C@@H](NC(=O)[C@H](CCC(=O)O)NC(=O)[C@H](CC(C)C)NC(C)=O)[C@@H](C)O)C(=O)N[C@@H](CC(C)C)C(=O)NCC(=O)N[C@@H](CCC(N)=O)C(=O)N[C@@H](CC(C)C)C(=O)N[C@@H](CCC(N)=O)C(=O)NCC(=O)N[C@@H](CSCC(=O)N[C@@H](CCCNC(=N)N)C(=O)N[C@@H](CCCNC(=N)N)C(=O)N[C@@H](CCCNC(=N)N)C(=O)N[C@@H](CCCNC(=N)N)C(=O)N[C@@H](CCCNC(=N)N)C(=O)N[C@@H](CCCNC(=N)N)C(=O)N[C@@H](CCCNC(=N)N)C(=O)N[C@@H](CCCNC(=N)N)C(N)=O)C(N)=O`, the EC50 [1] is reported as 40 µM, the EC50 [3] is reported as 31 µM and the inhibition at 50 µM [4] is reported as 49%. The CC50 at 120 h [2] was > 50 µM.

In the case of `CC[C@H](C)[C@H](NC(=O)[C@H](CCCCN)NC(=O)[C@H](CC(=O)O)NC(=O)[C@H](CC(C)C)NC(=O)[C@H](C)NC(=O)[C@H](CCC(=O)O)NC(=O)[C@H](CCCCN)NC(=O)[C@@H](NC(=O)[C@H](CC(=O)O)NC(=O)[C@H](CCCCN)NC(=O)[C@@H](NC(=O)[C@H](CC(=O)O)NC(=O)[C@@H](NC(=O)[C@H](CCCNC(=N)N)NC(C)=O)[C@@H](C)CC)C(C)C)[C@@H](C)O)C(=O)N[C@@H](CCC(=O)O)C(=O)NCC(=O)N[C@@H](CSCC(=O)N[C@@H](CCCNC(=N)N)C(=O)N[C@@H](CCCNC(=N)N)C(=O)N[C@@H](CCCNC(=N)N)C(=O)N[C@@H](CCCNC(=N)N)C(=O)N[C@@H](CCCNC(=N)N)C(=O)N[C@@H](CCCNC(=N)N)C(=O)N[C@@H](CCCNC(=N)N)C(=O)N[C@@H](CCCNC(=N)N)C(N)=O)C(N)=O`, the EC50 [1] is reported as 43 µM, the EC50 [3] is reported as 27 µM and the inhibition at 50 µM [4] is reported as 42%. The CC50 at 120 h [2] was > 50 µM.

In the case of `COC[C@@H](c1ccc(C(F)(F)F)cc1)N1CCN(C2(C)CCN(C(=O)c3c(C)ncnc3C)CC2)C[C@@H]1C` [VICRIVIROC], the EC50 [5] is reported as 0.026 µM and the EC50 [3] is reported as 0.0014 µM.

In the case of `CC(=O)N[C@@H](CC(C)C)C(=O)N[C@@H](CCC(=O)O)C(=O)N[C@@H](CCCNC(=N)N)C(=O)N[C@@H](Cc1ccccc1)C(=O)N[C@@H](C)C(=O)N[C@H](C(=O)N[C@@H](CC(N)=O)C(=O)N1CCC[C@H]1C(=O)NCC(=O)N[C@@H](CC(C)C)C(=O)N[C@@H](CC(C)C)C(=O)N[C@@H](CCC(=O)O)C(=O)N[C@H](C(=O)N[C@@H](CO)C(=O)N[C@@H](CCC(=O)O)C(=O)NCC(=O)N[C@@H](CSCC(N)=O)C(N)=O)[C@@H](C)O)C(C)C` (Ac-LERFAVNPGLLETSEGC(Cam)-NH2), the EC50 [1] is reported as > 50 µM and the CC50 at 120 h [2] is reported as > 50 µM.

With `CC(=O)N[C@@H](CC(=O)O)C(=O)N[C@H](C(=O)NCC(=O)N[C@@H](CC(N)=O)C(=O)N[C@@H](CC(N)=O)C(=O)N[C@@H](CO)C(=O)N[C@@H](CCC(N)=O)C(=O)N[C@H](C(=O)N[C@@H](CO)C(=O)N[C@@H](CCC(N)=O)C(=O)N[C@@H](CC(N)=O)C(=O)N[C@@H](Cc1ccc(O)cc1)C(=O)NCC(=O)N[C@@H](CSCC(=O)N[C@@H](CCCNC(=N)N)C(=O)N[C@@H](CCCNC(=N)N)C(=O)N[C@@H](CCCNC(=N)N)C(=O)N[C@@H](CCCNC(=N)N)C(=O)N[C@@H](CCCNC(=N)N)C(=O)N[C@@H](CCCNC(=N)N)C(=O)N[C@@H](CCCNC(=N)N)C(=O)N[C@@H](CCCNC(=N)N)C(N)=O)C(N)=O)C(C)C)[C@@H](C)O` the EC50 [1] was 20 µM, the EC50 [5] was 0.43 µM and the EC50 [3] was 11 µM. For the same molecule, the CC50 at 120 h [2] was > 50 µM.

In the case of `CC[C@H](C)[C@H](NC(=O)[C@H](CCCCN)NC(=O)[C@H](CC(=O)O)NC(=O)[C@H](CC(C)C)NC(C)=O)C(=O)N[C@@H](CCC(=O)O)C(=O)N[C@@H](CCC(=O)O)C(=O)N[C@@H](CCC(=O)O)C(=O)N[C@@H](CCC(N)=O)C(=O)N[C@@H](CC(N)=O)C(=O)N[C@@H](CCCCN)C(=O)N[C@@H](CO)C(=O)N[C@@H](CCCCN)C(=O)N[C@@H](CCCCN)C(=O)N[C@@H](CCCCN)C(=O)N[C@@H](C)C(=O)NCC(=O)N[C@@H](CSCC(N)=O)C(N)=O` (Ac-LDKIEEEQNKSKKKAGC(Cam)-NH2), the EC50 [1] is reported as > 50 µM and the CC50 at 120 h [2] is reported as > 50 µM.

In the case of `Cc1cn([C@H]2C[C@H](N=[N+]=[N-])[C@@H](CO)O2)c(=O)[nH]c1=O` [ZIDOVUDINE], the EC50 [1] is reported as 0.02 µM, the EC50 [5] is reported as 0.459 µM and the EC50 [3] is reported as 0.17 µM. For the same molecule, the CC50 at 120 h [2] was > 100 µM.

For `CSCC[C@H](N)C(=O)NCC(=O)N[C@@H](C)C(=O)N[C@@H](CCCNC(=N)N)C(=O)N[C@@H](C)C(=O)N[C@@H](CO)C(=O)N[C@H](C(=O)N[C@@H](CC(C)C)C(=O)N[C@@H](CO)C(=O)NCC(=O)NCC(=O)N[C@@H](CCC(=O)O)C(=O)N[C@@H](CC(C)C)C(=O)N[C@@H](CC(=O)O)C(=O)N[C@@H](CCCCN)C(=O)NCC(=O)N[C@@H](CSCC(=O)N[C@@H](CCCNC(=N)N)C(=O)N[C@@H](CCCNC(=N)N)C(=O)N[C@@H](CCCNC(=N)N)C(=O)N[C@@H](CCCNC(=N)N)C(=O)N[C@@H](CCCNC(=N)N)C(=O)N[C@@H](CCCNC(=N)N)C(=O)N[C@@H](CCCNC(=N)N)C(=O)N[C@@H](CCCNC(=N)N)C(N)=O)C(N)=O)C(C)C`, the EC50 [1] was 30 µM, the EC50 [5] was 30 µM and the EC50 [3] was 40 µM. For the same molecule, the CC50 at 120 h [2] was > 50 µM.

With `CC(=O)N[C@@H](CO)C(=O)N[C@@H](CCCCN)C(=O)N[C@@H](CCCCN)C(=O)N[C@@H](CCCCN)C(=O)N[C@@H](C)C(=O)N[C@@H](CCC(N)=O)C(=O)N[C@@H](CCC(N)=O)C(=O)N[C@@H](C)C(=O)N[C@@H](C)C(=O)N[C@@H](C)C(=O)N[C@@H](CC(=O)O)C(=O)N[C@H](C(=O)NCC(=O)N[C@@H](CC(N)=O)C(=O)N[C@@H](CC(N)=O)C(=O)NCC(=O)N[C@@H](CSCC(N)=O)C(N)=O)[C@@H](C)O` the EC50 [1] was > 50 µM and the CC50 at 120 h [2] was > 50 µM.

For `CC[C@H](C)[C@H](NC(=O)[C@H](CCCCN)NC(=O)[C@H](CCC(=O)O)NC(=O)[C@H](Cc1c[nH]c2ccccc12)NC(=O)[C@H](CCCCN)NC(=O)[C@H](CC(=O)O)NC(=O)[C@H](CC(C)C)NC(=O)[C@H](CCC(=O)O)NC(=O)CNC(C)=O)C(=O)N[C@@H](CCCNC(=N)N)C(=O)N[C@@H](CC(C)C)C(=O)N[C@@H](CCCNC(=N)N)C(=O)N1CCC[C@H]1C(=O)NCC(=O)NCC(=O)NCC(=O)N[C@@H](CSCC(N)=O)C(N)=O`, the EC50 [1] was 17 µM, the EC50 [5] was 1 µM and the CC50 at 120 h [2] was > 50 µM.

With `CC[C@H](C)[C@H](NC(=O)[C@H](Cc1cnc[nH]1)NC(=O)[C@H](CCCCN)NC(=O)[C@H](CC(C)C)NC(=O)[C@H](CCCCN)NC(=O)[C@H](Cc1ccc(O)cc1)NC(=O)[C@H](CCC(N)=O)NC(=O)[C@H](CCCCN)NC(=O)[C@H](CCCCN)NC(=O)CNC(=O)CNC(=O)[C@@H]1CCCN1C(=O)[C@H](CCCNC(=N)N)NC(=O)[C@H](CC(C)C)NC(C)=O)C(=O)N[C@H](C(=O)NCC(=O)N[C@@H](CSCC(N)=O)C(N)=O)C(C)C` the EC50 [1] was > 50 µM and the CC50 at 120 h [2] was > 50 µM.

With `CC(=O)N[C@@H](CC(C)C)C(=O)NCC(=O)N[C@@H](CCC(N)=O)C(=O)N[C@@H](CC(C)C)C(=O)N[C@@H](CCC(N)=O)C(=O)N1CCC[C@H]1C(=O)N[C@@H](CO)C(=O)N[C@@H](CC(C)C)C(=O)N[C@@H](CCC(N)=O)C(=O)N[C@H](C(=O)NCC(=O)N[C@@H](CO)C(=O)N[C@@H](CCC(=O)O)C(=O)N[C@@H](CCC(=O)O)C(=O)N[C@@H](CC(C)C)C(=O)NCC(=O)N[C@@H](CSCC(N)=O)C(N)=O)[C@@H](C)O` (Ac-LGQLQPSLQTGSEELGC(Cam)-NH2) the EC50 [1] was > 50 µM and the CC50 at 120 h [2] was > 50 µM.

In the case of `CSCC[C@H](N)C(=O)NCC(=O)N[C@@H](C)C(=O)N[C@@H](CCCNC(=N)N)C(=O)N[C@@H](C)C(=O)N[C@@H](CO)C(=O)N[C@H](C(=O)N[C@@H](CC(C)C)C(=O)N[C@@H](CO)C(=O)NCC(=O)NCC(=O)N[C@@H](CCC(=O)O)C(=O)N[C@@H](CC(C)C)C(=O)N[C@@H](CC(=O)O)C(=O)N[C@@H](CCCCN)C(=O)NCC(=O)N[C@@H](CSCC(N)=O)C(N)=O)C(C)C` (H-MGARASVLSGGELDKGC(Cam)-NH2), the EC50 [1] is reported as > 50 µM and the CC50 at 120 h [2] is reported as > 50 µM.

For `CC[C@H](C)[C@H](NC(=O)[C@H](CCCCN)NC(=O)[C@H](CCC(=O)O)NC(=O)[C@H](Cc1c[nH]c2ccccc12)NC(=O)[C@H](CCCCN)NC(=O)[C@H](CC(=O)O)NC(=O)[C@H](CC(C)C)NC(=O)[C@H](CCC(=O)O)NC(=O)CNC(C)=O)C(=O)N[C@@H](CCCNC(=N)N)C(=O)N[C@@H](CC(C)C)C(=O)N[C@@H](CCCNC(=N)N)C(=O)N1CCC[C@H]1C(=O)NCC(=O)NCC(=O)NCC(=O)N[C@@H](CSCC(=O)N[C@@H](CCCNC(=N)N)C(=O)N[C@@H](CCCNC(=N)N)C(=O)N[C@@H](CCCNC(=N)N)C(=O)N[C@@H](CCCNC(=N)N)C(=O)N[C@@H](CCCNC(=N)N)C(=O)N[C@@H](CCCNC(=N)N)C(=O)N[C@@H](CCCNC(=N)N)C(=O)N[C@@H](CCCNC(=N)N)C(N)=O)C(N)=O`, the EC50 [1] was 21 µM, the EC50 [5] was > 31 µM and the CC50 at 120 h [2] was 32 µM.

Reference: ChEMBL document CHEMBL1944566, “Conjugation of cell-penetrating peptides leads to identification of anti-HIV peptides from matrix proteins” (Bioorg Med Chem, 2012)
